No end group written: not given here.
Tested on: MDRAB clinical strain AF93
Assay type: cell-based, Acinetobacter baumannii
Conditions: 24 h

MIC | Substance | MBC
8 µg/mL | GRFKRFRKKFKKLFKKLSPVIPLLHLG [BMAP-27] | 8 µg/mL
8 µg/mL | GWGSFFKKAAHVGKHVGKAALTHYL-NH2 [Pleurocidin] | 16 µg/mL

Tested on: MDRAB clinical strain U95
Assay type: cell-based, Acinetobacter baumannii
Conditions: 24 h
Protocol: (§1) MBC were determined by extending the MIC procedure in sterilized 96-well polypropylene microtiter plates according to the broth microdilution guidelines of the Clinical and Laboratory Standards Institute with some modification[47]. […] In addition, 10 µL was drawn from each well with no visible turbidity onto LB agar plates and incubated for 24 h at 37 °C. The lowest concentration showing no visible growth on agar subculture was used as the MBC value. All experiments were performed in triplicate.

MIC | Substance | MBC
16 µg/mL | GRFKRFRKKFKKLFKKLSPVIPLLHLG [BMAP-27] | 16 µg/mL
32 µg/mL | GWGSFFKKAAHVGKHVGKAALTHYL-NH2 [Pleurocidin] | 32 µg/mL

Tested on: Acinetobacter baumannii 19,606
Assay type: cell-based
Conditions: 19,606, 24 h

MIC | Substance | MBC
8 µg/mL | GRFKRFRKKFKKLFKKLSPVIPLLHLG [BMAP-27] | 8 µg/mL
16 µg/mL | GWGSFFKKAAHVGKHVGKAALTHYL-NH2 [Pleurocidin] | 16 µg/mL

Tested on: MDRAB clinical strain L87
Assay type: cell-based, Acinetobacter baumannii
Conditions: 24 h
Protocol: as §1

MIC | Substance | MBC
16 µg/mL | GRFKRFRKKFKKLFKKLSPVIPLLHLG [BMAP-27] | 16 µg/mL
32 µg/mL | GWGSFFKKAAHVGKHVGKAALTHYL-NH2 [Pleurocidin] | 32 µg/mL

Tested on: MDRAB clinical strain AF11
Assay type: cell-based, Acinetobacter baumannii
Conditions: 24 h
Protocol: as §1

MIC | Substance | MBC
8 µg/mL | GRFKRFRKKFKKLFKKLSPVIPLLHLG [BMAP-27] | 16 µg/mL
8 µg/mL | GWGSFFKKAAHVGKHVGKAALTHYL-NH2 [Pleurocidin] | 16 µg/mL

Tested on: MDRAB clinical strain AS40
Assay type: cell-based, Acinetobacter baumannii
Conditions: 24 h
Protocol: as §1

MIC | Substance | MBC
8 µg/mL | GRFKRFRKKFKKLFKKLSPVIPLLHLG [BMAP-27] | 8 µg/mL
8 µg/mL | GWGSFFKKAAHVGKHVGKAALTHYL-NH2 [Pleurocidin] | 8 µg/mL

Tested on: MDRAB clinical strain W11
Assay type: cell-based, Acinetobacter baumannii
Conditions: 24 h

MIC | Substance | MBC
16 µg/mL | GRFKRFRKKFKKLFKKLSPVIPLLHLG [BMAP-27] | 16 µg/mL
16 µg/mL | GWGSFFKKAAHVGKHVGKAALTHYL-NH2 [Pleurocidin] | 16 µg/mL

Tested on: MDRAB clinical strain J49
Assay type: cell-based, Acinetobacter baumannii
Conditions: 24 h
Protocol: as §1

MIC | Substance | MBC
8 µg/mL | GRFKRFRKKFKKLFKKLSPVIPLLHLG [BMAP-27] | 8 µg/mL
16 µg/mL | GWGSFFKKAAHVGKHVGKAALTHYL-NH2 [Pleurocidin] | 16 µg/mL

Tested on: MDRAB clinical strain AL87
Assay type: cell-based, Acinetobacter baumannii
Conditions: 24 h

MIC | Substance | MBC
8 µg/mL | GRFKRFRKKFKKLFKKLSPVIPLLHLG [BMAP-27] | 8 µg/mL
8 µg/mL | GWGSFFKKAAHVGKHVGKAALTHYL-NH2 [Pleurocidin] | 8 µg/mL

Tested on: MDRAB clinical strain AF12
Assay type: cell-based, Acinetobacter baumannii
Conditions: 24 h

MIC | Substance | MBC
8 µg/mL | GRFKRFRKKFKKLFKKLSPVIPLLHLG [BMAP-27] | 8 µg/mL
8 µg/mL | GWGSFFKKAAHVGKHVGKAALTHYL-NH2 [Pleurocidin] | 8 µg/mL

Tested on: MDRAB clinical strain AK61
Assay type: cell-based, Acinetobacter baumannii
Conditions: 24 h
Protocol: as §1

MIC | Substance | MBC
8 µg/mL | GRFKRFRKKFKKLFKKLSPVIPLLHLG [BMAP-27] | 8 µg/mL
16 µg/mL | GWGSFFKKAAHVGKHVGKAALTHYL-NH2 [Pleurocidin] | 16 µg/mL

Tested on: MDRAB clinical strain AG51
Assay type: cell-based, Acinetobacter baumannii
Conditions: 24 h
Protocol: as §1

MIC | Substance | MBC
4 µg/mL | GRFKRFRKKFKKLFKKLSPVIPLLHLG [BMAP-27] | 8 µg/mL
8 µg/mL | GWGSFFKKAAHVGKHVGKAALTHYL-NH2 [Pleurocidin] | 8 µg/mL

Tested on: MDRAB clinical strain K2
Assay type: cell-based, Acinetobacter baumannii
Conditions: 24 h
Protocol: as §1

MIC | Substance | MBC
16 µg/mL | GRFKRFRKKFKKLFKKLSPVIPLLHLG [BMAP-27] | 32 µg/mL
16 µg/mL | GWGSFFKKAAHVGKHVGKAALTHYL-NH2 [Pleurocidin] | 32 µg/mL

Tested on: MDRAB clinical strains
Assay type: cell-based, Acinetobacter baumannii
Conditions: 24 h
Protocol: as §1

MIC | Substance | MBC
4 to 16 µg/mL | GRFKRFRKKFKKLFKKLSPVIPLLHLG [BMAP-27] | –
8 to 32 µg/mL | GWGSFFKKAAHVGKHVGKAALTHYL-NH2 [Pleurocidin] | 8 to 32 µg/mL

Tested on: MDRAB clinical strain Y92
Assay type: cell-based, Acinetobacter baumannii
Conditions: 24 h

MIC | Substance | MBC
8 µg/mL | GRFKRFRKKFKKLFKKLSPVIPLLHLG [BMAP-27] | 8 µg/mL
8 µg/mL | GWGSFFKKAAHVGKHVGKAALTHYL-NH2 [Pleurocidin] | 8 µg/mL

Tested on: MDRAB clinical strain AK29
Assay type: cell-based, Acinetobacter baumannii
Conditions: 24 h
Protocol: as §1

MIC | Substance | MBC
4 µg/mL | GRFKRFRKKFKKLFKKLSPVIPLLHLG [BMAP-27] | 8 µg/mL
8 µg/mL | GWGSFFKKAAHVGKHVGKAALTHYL-NH2 [Pleurocidin] | 16 µg/mL

Tested on: MDRAB clinical strain U80
Assay type: cell-based, Acinetobacter baumannii
Conditions: 24 h

MIC | Substance | MBC
8 µg/mL | GRFKRFRKKFKKLFKKLSPVIPLLHLG [BMAP-27] | 16 µg/mL
16 µg/mL | GWGSFFKKAAHVGKHVGKAALTHYL-NH2 [Pleurocidin] | 16 µg/mL

Tested on: MDRAB clinical strain AO80
Assay type: cell-based, Acinetobacter baumannii
Conditions: 24 h

MIC | Substance | MBC
8 µg/mL | GRFKRFRKKFKKLFKKLSPVIPLLHLG [BMAP-27] | 8 µg/mL
8 µg/mL | GWGSFFKKAAHVGKHVGKAALTHYL-NH2 [Pleurocidin] | 8 µg/mL

Tested on: MDRAB clinical strain AE6
Assay type: cell-based, Acinetobacter baumannii
Conditions: 24 h

MIC | Substance | MBC
16 µg/mL | GRFKRFRKKFKKLFKKLSPVIPLLHLG [BMAP-27] | 16 µg/mL
16 µg/mL | GWGSFFKKAAHVGKHVGKAALTHYL-NH2 [Pleurocidin] | 16 µg/mL

Tested on: MDRAB clinical strain AN10
Assay type: cell-based, Acinetobacter baumannii
Conditions: 24 h

MIC | Substance | MBC
4 µg/mL | GRFKRFRKKFKKLFKKLSPVIPLLHLG [BMAP-27] | 4 µg/mL
16 µg/mL | GWGSFFKKAAHVGKHVGKAALTHYL-NH2 [Pleurocidin] | 16 µg/mL

Tested on: MDRAB clinical strain D29
Assay type: cell-based, Acinetobacter baumannii
Conditions: 24 h

MIC | Substance | MBC
16 µg/mL | GRFKRFRKKFKKLFKKLSPVIPLLHLG [BMAP-27] | 16 µg/mL
16 µg/mL | GWGSFFKKAAHVGKHVGKAALTHYL-NH2 [Pleurocidin] | 32 µg/mL

Tested on: MDRAB clinical strain AZ93
Assay type: cell-based, Acinetobacter baumannii
Conditions: 24 h

MIC | Substance | MBC
8 µg/mL | GRFKRFRKKFKKLFKKLSPVIPLLHLG [BMAP-27] | 8 µg/mL
8 µg/mL | GWGSFFKKAAHVGKHVGKAALTHYL-NH2 [Pleurocidin] | 8 µg/mL

Tested on: MDRAB clinical strain O59
Assay type: cell-based, Acinetobacter baumannii
Conditions: 24 h
Protocol: as §1

MIC | Substance | MBC
16 µg/mL | GRFKRFRKKFKKLFKKLSPVIPLLHLG [BMAP-27] | 16 µg/mL
16 µg/mL | GWGSFFKKAAHVGKHVGKAALTHYL-NH2 [Pleurocidin] | 16 µg/mL

Tested on: MDRAB clinical strain AE5
Assay type: cell-based, Acinetobacter baumannii
Conditions: 24 h
Protocol: as §1

MIC | Substance | MBC
8 µg/mL | GRFKRFRKKFKKLFKKLSPVIPLLHLG [BMAP-27] | 16 µg/mL
16 µg/mL | GWGSFFKKAAHVGKHVGKAALTHYL-NH2 [Pleurocidin] | 16 µg/mL

Tested on: Acinetobacter baumannii 17,978;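 further: CLSI broth microdilution in 96-well polypropylene plates, MBC taken as lowest concentration giving no growth when clear wells were subcultured on LB agar for 24 h at 37 °C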
Assay type: cell-based
Conditions: 17,978, 24 h

MIC | Substance | MBC
16 µg/mL | GRFKRFRKKFKKLFKKLSPVIPLLHLG [BMAP-27] | 16 µg/mL
16 µg/mL | GWGSFFKKAAHVGKHVGKAALTHYL-NH2 [Pleurocidin] | 16 µg/mL
